Test results: PMC6364417, “Kinase inhibitor library screening identifies synergistic drug combinations effective in sensitive and resistant melanoma cells” (Journal of Experimental & Clinical Cancer Research : CR, 2019)

How the values were obtained:
Assay in all cases: Kinase inhibitor library screening, PrestoBlue cell viability, 1 or 10 μM, 72 h
A375 cells (parental) = conditions: A375 Parental
501Mel cells (parental) = conditions: 501Mel Parental
Summary of the method: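 Two concentrations of every kinase inhibitor were tested on each melanoma line and its resistant counterparts, and cell survival was quantified by PrestoBlue against untreated wells.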

[1] = system: 501Mel-XP cells (Vemurafenib-resistant); conditions: 501Mel XP
IGR37 cells (parental) = conditions: IGR37 Parental
[2] = system: IGR37-GP cells (Dabrafenib-resistant); conditions: IGR37 GP
[3] = system: A375-GP cells (Dabrafenib-resistant); conditions: A375 GP
[4] = system: A375-XP cells (Vemurafenib-resistant); conditions: A375 XP
[5] = system: 501Mel-GP cells (Dabrafenib-resistant); conditions: 501Mel GP
[6] = system: IGR37-XP cells (Vemurafenib-resistant); conditions: IGR37 XP

Cc1nc(Nc2ncc(C(=O)Nc3c(C)cccc3Cl)s2)cc(N2CCN(CCO)CC2)n1 [Dasatinib (BMS-354825)]
cell viability (kinase inhibitor library screening) (A375 cells (parental); 1μΜ, in %): 68.7 | cell viability (kinase inhibitor library screening) (A375 cells (parental); 10μΜ, in %): 30.8 | cell viability (kinase inhibitor library screening) (501Mel cells (parental); 1μΜ, in %): 91.7 | cell viability (kinase inhibitor library screening) (501Mel cells (parental); 10μΜ, in %): 73.7 | cell viability (kinase inhibitor library screening) ([1]; 1μΜ, in %): 88.2 | cell viability (kinase inhibitor library screening) ([1]; 10μΜ, in %): 63.3 | cell viability (kinase inhibitor library screening) (IGR37 cells (parental); 1μΜ, in %): 98.7 | cell viability (kinase inhibitor library screening) (IGR37 cells (parental); 10μΜ, in %): 80.2 | cell viability (kinase inhibitor library screening) ([2]; 1μΜ, in %): 91.4 | cell viability (kinase inhibitor library screening) ([2]; 10μΜ, in %): 66.8 | cell viability (kinase inhibitor library screening) ([3]; 1μΜ, in %): 63.7 | cell viability (kinase inhibitor library screening) ([3]; 10μΜ, in %): 48.1 | cell viability (kinase inhibitor library screening) ([4]; 1μΜ, in %): 70.6 | cell viability (kinase inhibitor library screening) ([4]; 10μΜ, in %): 57.8 | cell viability (kinase inhibitor library screening) ([5]; 1μΜ, in %): 96.7 | cell viability (kinase inhibitor library screening) ([5]; 10μΜ, in %): 77.1 | cell viability (kinase inhibitor library screening) ([6]; 1μΜ, in %): 88.2 | cell viability (kinase inhibitor library screening) ([6]; 10μΜ, in %): 39.8

CO[C@H]1C[C@@H]2CC[C@@H](C)[C@@](O)(O2)C(=O)C(=O)N2CCCC[C@H]2C(=O)O[C@H]([C@H](C)C[C@@H]2CC[C@@H](OP(C)(C)=O)[C@H](OC)C2)CC(=O)[C@H](C)/C=C(\C)[C@@H](O)[C@@H](OC)C(=O)[C@H](C)C[C@H](C)/C=C/C=C/C=C/1C [Deforolimus (Ridaforolimus)]
Cell viability in kinase inhibitor library screening, A375 Parental, 10μΜ (A375 cells (parental); 10μΜ, 72 h): 73.5 | Cell viability in kinase inhibitor library screening, A375 Parental, 1μΜ (A375 cells (parental); 1μΜ, 72 h): 82.1 | Cell viability in kinase inhibitor library screening, 501Mel Parental, 1μΜ (501Mel cells (parental); 1μΜ, 72 h, in %): 84.8 | Cell viability in kinase inhibitor library screening, 501Mel Parental, 10μΜ (501Mel cells (parental); 10μΜ, 72 h, in %): 82.7 | Cell viability in kinase inhibitor library screening, 501Mel XP, 1μΜ ([1]; 1μΜ, 72 h, in %): 54.3 | Cell viability in kinase inhibitor library screening, 501Mel XP, 10μΜ ([1]; 10μΜ, 72 h, in %): 40.7 | Cell viability in kinase inhibitor library screening, IGR37 Parental, 1μΜ (IGR37 cells (parental); 1μΜ, 72 h, in %): 82.2 | Cell viability in kinase inhibitor library screening, IGR37 Parental, 10μΜ (IGR37 cells (parental); 10μΜ, 72 h, in %): 86.0 | Cell viability in kinase inhibitor library screening, IGR37 GP, 10μΜ ([2]; 10μΜ, 72 h): 76.8% | Cell viability in kinase inhibitor library screening, IGR37 GP, 1μΜ ([2]; 1μΜ, 72 h, in %): 90.2 | Cell viability in kinase inhibitor library screening, A375 GP, 1μΜ ([3]; 1μΜ, 72 h): 79.3 | Cell viability in kinase inhibitor library screening, A375 GP, 10μΜ ([3]; 10μΜ, 72 h): 72.3 | Cell viability in kinase inhibitor library screening, A375 XP, 1μΜ ([4]; 1μΜ, 72 h): 79.9 | Cell viability in kinase inhibitor library screening, A375 XP, 10μΜ ([4]; 10μΜ, 72 h): 76.9 | Cell viability in kinase inhibitor library screening, 501Mel GP, 1μΜ ([5]; 1μΜ, 72 h, in %): 66.5 | Cell viability in kinase inhibitor library screening, 501Mel GP, 10μΜ ([5]; 10μΜ, 72 h, in %): 55.6 | Cell viability in kinase inhibitor library screening, IGR37 XP, 10μΜ ([6]; 10μΜ, 72 h): 56.1% | Cell viability in kinase inhibitor library screening, IGR37 XP, 1μΜ ([6]; 1μΜ, 72 h, in %): 95.0

C#Cc1cccc(Nc2ncnc3cc(OCCOC)c(OCCO)cc23)c1 [Desmethyl Erlotinib (CP-473420)]
cell viability, A375 Parental, 1μΜ (A375 cells (parental); 1μΜ, 72 h, in %): 104.3 | cell viability, A375 Parental, 10μΜ (A375 cells (parental); 10μΜ, 72 h, in %): 78.2 | cell viability, 501Mel Parental, 10μΜ (501Mel cells (parental); 10μΜ, 72 h, in %): 82.4 | cell viability, 501Mel XP, 1μΜ ([1]; 1μΜ, 72 h, in %): 100.0 | cell viability, 501Mel XP, 10μΜ ([1]; 10μΜ, 72 h, in %): 41.7 | cell viability, IGR37 Parental, 1μΜ (IGR37 cells (parental); 1μΜ, 72 h, in %): 99.9 | cell viability, IGR37 Parental, 10μΜ (IGR37 cells (parental); 10μΜ, 72 h, in %): 92.4 | cell viability, IGR37 GP, 10μΜ ([2]; 10μΜ, 72 h): 73.5% | cell viability, IGR37 GP, 1μΜ ([2]; 1μΜ, 72 h, in %): 85.7 | cell viability, A375 GP, 10μΜ ([3]; 10μΜ, 72 h, in %): 65.7 | cell viability, A375 XP, 1μΜ ([4]; 1μΜ, 72 h, in %): 100.2 | cell viability, A375 XP, 10μΜ ([4]; 10μΜ, 72 h, in %): 81.3 | cell viability, 501Mel GP, 1μΜ ([5]; 1μΜ, 72 h, in %): 107.4 | cell viability, 501Mel GP, 10μΜ ([5]; 10μΜ, 72 h, in %): 74.9 | cell viability, IGR37 XP, 10μΜ ([6]; 10μΜ, 72 h): 49.7% | cell viability, IGR37 XP, 1μΜ ([6]; 1μΜ, 72 h, in %): 80.3

CCc1cnn2c(NCc3ccc[n+]([O-])c3)cc(N3CCCC[C@H]3CCO)nc12 [Dinaciclib (SCH727965)]
cell viability (kinase inhibitor library screening) (A375 cells (parental); 10μΜ, 72 h): 10.7% | cell viability (kinase inhibitor library screening) (A375 cells (parental); 1μΜ, 72 h): 10.8% | cell viability (kinase inhibitor library screening) (501Mel cells (parental); 1μΜ, 72 h): 1.5% | cell viability (kinase inhibitor library screening) (501Mel cells (parental); 10μΜ, 72 h): 1.3% | cell viability (kinase inhibitor library screening) ([1]; 1μΜ, 72 h): 0.85% | cell viability (kinase inhibitor library screening) ([1]; 10μΜ, 72 h): 0.249% | cell viability (kinase inhibitor library screening) (IGR37 cells (parental); 1μΜ, 72 h): 4.4% | cell viability (kinase inhibitor library screening) (IGR37 cells (parental); 10μΜ, 72 h): 2.8% | cell viability (kinase inhibitor library screening) ([2]; 1μΜ, 72 h): 4.4% | cell viability (kinase inhibitor library screening) ([2]; 10μΜ, 72 h): 2.3% | cell viability (kinase inhibitor library screening) ([3]; 1μΜ, 72 h): 10.0% | cell viability (kinase inhibitor library screening) ([3]; 10μΜ, 72 h): 6.1% | cell viability (kinase inhibitor library screening) ([4]; 1μΜ, 72 h): 11.5% | cell viability (kinase inhibitor library screening) ([4]; 10μΜ, 72 h): 8.1% | cell viability (kinase inhibitor library screening) ([5]; 1μΜ, 72 h): 0.636% | cell viability (kinase inhibitor library screening) ([5]; 10μΜ, 72 h): 0.422% | cell viability (kinase inhibitor library screening) ([6]; 1μΜ, 72 h): 3.1% | cell viability (kinase inhibitor library screening) ([6]; 10μΜ, 72 h): 2.6%

CN1CCN(c2ccc3nc(-c4c(N)c5c(F)cccc5[nH]c4=O)[nH]c3c2)CC1 [Dovitinib (TKI-258)]
cell viability, A375 Parental, 1μΜ (A375 cells (parental); 1μΜ, 72 h, in %): 102.8 | cell viability, A375 Parental, 10μΜ (A375 cells (parental); 10μΜ, 72 h, in %): 47.2 | cell viability, 501Mel Parental, 1μΜ (501Mel cells (parental); 1μΜ, 72 h, in %): 103.1 | cell viability, 501Mel Parental, 10μΜ (501Mel cells (parental); 10μΜ, 72 h, in %): 0.6 | cell viability, 501Mel XP, 1μΜ ([1]; 1μΜ, 72 h, in %): 87.1 | cell viability, 501Mel XP, 10μΜ ([1]; 10μΜ, 72 h, in %): -0.0348 | cell viability, IGR37 Parental, 1μΜ (IGR37 cells (parental); 1μΜ, 72 h, in %): 96.1 | cell viability, IGR37 Parental, 10μΜ (IGR37 cells (parental); 10μΜ, 72 h, in %): 64.0 | cell viability, IGR37 GP, 10μΜ ([2]; 10μΜ, 72 h): 42.8% | cell viability, IGR37 GP, 1μΜ ([2]; 1μΜ, 72 h, in %): 99.9 | cell viability, A375 GP, 1μΜ ([3]; 1μΜ, 72 h, in %): 93.5 | cell viability, A375 GP, 10μΜ ([3]; 10μΜ, 72 h, in %): 42.2 | cell viability, A375 XP, 1μΜ ([4]; 1μΜ, 72 h, in %): 97.7 | cell viability, A375 XP, 10μΜ ([4]; 10μΜ, 72 h, in %): 58.3 | cell viability, 501Mel GP, 1μΜ ([5]; 1μΜ, 72 h, in %): 95.0 | cell viability, 501Mel GP, 10μΜ ([5]; 10μΜ, 72 h, in %): -0.1 | cell viability, IGR37 XP, 10μΜ ([6]; 10μΜ, 72 h): 22.5% | cell viability, IGR37 XP, 1μΜ ([6]; 1μΜ, 72 h, in %): 102.6

COc1cc2nccc(Oc3ccc(NC(=O)NC4CC4)c(Cl)c3)c2cc1C(N)=O [E7080 (Lenvatinib)]
cell viability (kinase inhibitor library screening) (A375 cells (parental); 1μΜ, in %): 103.7 | cell viability (kinase inhibitor library screening) (A375 cells (parental); 10μΜ, in %): 95.8 | cell viability (kinase inhibitor library screening) (501Mel cells (parental); 1μΜ, in %): 106.1 | cell viability (kinase inhibitor library screening) (501Mel cells (parental); 10μΜ, in %): 105.7 | cell viability (kinase inhibitor library screening) ([1]; 1μΜ, in %): 98.9 | cell viability (kinase inhibitor library screening) ([1]; 10μΜ, in %): 87.0 | cell viability (kinase inhibitor library screening) (IGR37 cells (parental); 1μΜ, in %): 102.9 | cell viability (kinase inhibitor library screening) (IGR37 cells (parental); 10μΜ, in %): 104.3 | cell viability (kinase inhibitor library screening) ([2]; 1μΜ, in %): 97.5 | cell viability (kinase inhibitor library screening) ([2]; 10μΜ, in %): 86.5 | cell viability (kinase inhibitor library screening) ([3]; 10μΜ, in %): 94.8 | cell viability (kinase inhibitor library screening) ([4]; 10μΜ, in %): 109.2 | cell viability (kinase inhibitor library screening) ([5]; 1μΜ, in %): 106.1 | cell viability (kinase inhibitor library screening) ([5]; 10μΜ, in %): 90.9 | cell viability (kinase inhibitor library screening) ([6]; 1μΜ, in %): 97.7 | cell viability (kinase inhibitor library screening) ([6]; 10μΜ, in %): 58.8
